The test system of one data set is RIF-1 tumors. Put plainly: PDT of RIF-1 implanted tumors (Table 7). Type of data set: in vivo, C3H/HeN mice. The settings on record: for effect on tumor volume / growth (in words): 1 mg/kg. An outline of the steps: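 C3H/HeN mice each carried one RIF-1 fibrosarcoma on the back and received 1 mg/kg phthalocyanine as a corn-oil suspension. Volume was measured daily by calipers from a 50±10 mm^3 start and calculated with the hemiellipsoid model.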

For data set [1], the system named is Chinese hamster V79-379 cells. As to the kind of experiment: Clonogenic cell survival / photocytotoxicity in V79 cells (Table 1, FIG. 1, FIG. 2). The format is cell-based. Conditions: for CF10 (AlPcCl)/CF10 (Pc) / F10 (AlPcCl)/F10 (Pc): 18 h; for photosensitizing efficiency / photocytotoxicity (in words): V79 cells, red light. An outline of the steps: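 V79-379 Chinese hamster lung fibroblasts were loaded with phthalocyanine (0.5-1.0 μM final) for 18 hours, then irradiated in HBSS with >600 nm red light at approximately 0.074 kJ/m^2/s. Survival was scored by colony formation (≥50 cells, 7-10 days), giving F10 and the uptake-adjusted CF10 (intracellular concentration × fluence) relative to 1 μM AlPcCl.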

Data set [2] can be described thus: Retention in tumor tissue (pharmacokinetics). The settings on record: in vivo.

From patent US5484778A, “Phthalocyanine photosensitizers for photodynamic therapy and methods for their use” (priority 1993, dated 1996) come the findings set out here.

Each structure is given as a SMILES string. Entries after “also recorded” stand apart in the source; their conditions may differ.

For the compound `CN(C)CCC[Si](C)(C)O[Si]1(O)n2c3c4ccccc4c2N=C2N=C(N=c4c5ccccc5c(n41)=NC1=NC(=N3)c3ccccc31)c1ccccc12` (stereo not drawn) [Compound IV, HOSiPcOsi(CH3)2)(CH2)3 N(CH3)2], in the data set with RIF-1 tumors (1 mg/kg in corn oil, 675 nm, 135 J/cm^2), the “Doubling Time of Initial Tumor Volume after PDT” value was determined as 16 days. Further, the “effect on tumor volume / growth (in words)” value is given as “significantly impair the growth of the tumors” with RIF-1 tumors (listed as Pc IV) and “particularly effective in reducing tumor volume” in the data set with RIF-1 tumors (listed as PcIV). Further, the tumor regrowth entry in the data set on RIF-1 tumors (after PDT, from the tumor margins) is on record as “regrowth of tumors from the tumor margins occurred”. The “CF10 (AlPcCl)/CF10 (Pc)” value in data set [1] (0.5 μM) worked out at 3.9; in data set [1] (1.0 μM, CF10 = intracellular concentration x fluence reducing survival to 10%), 3.5. Moreover, the “F10 (AlPcCl)/F10 (Pc)” value in data set [1] (0.5 μM) is given as 1.85; in data set [1] (1.0 μM, F10 = fluence reducing survival to 10%), 4.25. For the same compound, the “photosensitizing efficiency / photocytotoxicity (in words)” value in data set [1] is “almost twice as efficient as the standard AlPcCl; also recorded: most efficient photosensitizer”; in data set [1] (listed as SiPc(OH)(OSi(CH3)2 (CH2)3 N(CH3)2)) it was “most efficient photosensitizer, as judged by uptake, growth delay, and photocytotoxicity”. Also, the “retention in tumor tissue after administration” value in data set [2] is on record as at least 7 days. In addition, in “Solubility”, the solubility in solvents entry was “soluble in CH2 Cl2 and toluene”.
